Source: patent US10112925B2, “Methods for the preparation of charged crosslinkers” (IMMUNOGEN, INC., priority 2010, dated 2018)

How the values were obtained:
[1] = Hygroscopicity of solid forms of compound (V), qualitative comparison; assay type: physicochemical; conditions: solid form; amorphous solid made according to US 20090274713 as comparator
Excerpt: In one embodiment, the invention is directed to new crystalline forms of the compound of formula (V), e.g., Crystalline Forms 1, 2a, 2b and 3 as described below.

[2] = Gravimetric vapour sorption (GVS) moisture sorption isotherm; assay type: physicochemical; conditions: 25° C.; for weight gain, adsorption profile (GVS): between 40% RH and 90% RH; for weight loss, desorption profile (GVS): between 90% RH and 0% RH
Method: Sorption isotherms were obtained using a SMS DVS Intrinsic moisture sorption analyser, controlled by DVS Intrinsic Control software v1.0.0.30. The sample temperature was maintained at 25° C. by the instrument controls. The humidity was controlled by mixing streams of dry and wet nitrogen, with a total flow rate of 200 ml/min. The relative humidity was measured by a calibrated Rotronic probe (dynamic range of 1.0-100% RH), located near the sample. The weight change, (mass relaxation) of the sample as a function of % RH was constantly monitored by the microbalance (accuracy ±0.005 mg).
Typically 10 mg of sample was placed in a tared mesh stainless steel basket under ambient conditions. The sample was loaded and unloaded at 40% RH and 25° C. (typical room conditions). A moisture sorption isotherm was performed as outlined below (2 scans giving 1 complete cycle). The standard isotherm was performed at 25° C. at 10% RH intervals over a 0-90% RH range. Data analysis was undertaken in Microsoft Excel using DVS Analysis Suite v6.0.0.7.

Row | weight gain, adsorption profile (GVS) [2] | weight loss, desorption profile (GVS) [2] | weight gain, second adsorption profile (GVS) ([2]; between 0% RH and 40% RH) | Structure (SMILES) | hygroscopicity [1]
1 | 1.6% | 1.9% |  | O=C(ON1C(=O)CCC1=O)C(CCSSc1ccccn1)S(=O)(=O)O (stereo not drawn) [Crystalline Form 1, N-succinimidyl 4-(2′-pyridyldithio)-2-sulfobutanoate] | significantly less hygroscopic than the amorphous solid
2 | 1.8% | 2.4% |  | O=C(ON1C(=O)CCC1=O)C(CCSSc1ccccn1)S(=O)(=O)O (stereo not drawn) [Crystalline Form 2a, N-succinimidyl 4-(2′-pyridyldithio)-2-sulfobutanoate] | significantly less hygroscopic than the amorphous solid
3 | 25% | 29.4% | 0.4% | O=C(ON1C(=O)CCC1=O)C(CCSSc1ccccn1)S(=O)(=O)O (stereo not drawn) [Crystalline Form 3, N-succinimidyl 4-(2′-pyridyldithio)-2-sulfobutanoate] | significantly less hygroscopic than the amorphous solid

Continued, molecule first:

Row | Structure (SMILES) | weight gain, adsorption profile (GVS) [2] | weight loss, desorption profile (GVS) [2] | weight gain, second adsorption profile (GVS) ([2]; between 0% RH and 40% RH) | hygroscopicity [1]
4 | O=C(ON1C(=O)CCC1=O)C(CCSSc1ccccn1)S(=O)(=O)O (stereo not drawn) [Compound of formula (V), N-succinimidyl 4-(2′-pyridyldithio)-2-sulfobutanoate] |  |  |  | highly hygroscopic
5 | O=C(ON1C(=O)CCC1=O)C(CCSSc1ccccn1)S(=O)(=O)O (stereo not drawn) [Crystalline Form 2b, N-succinimidyl 4-(2′-pyridyldithio)-2-sulfobutanoate] |  |  |  | significantly less hygroscopic than the amorphous solid
